According to ChEMBL document CHEMBL1201862, “PubChem BioAssay data set” (2004):
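Step 1: Grow cells in 96-well plates. Step 2: Expose to compound for 48 hours at 5 concentrations. Step 3: Interpolate endpoints linearly; if unreached, use highest concentration. GI50 = concentration required for 50% inhibition of growth.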 The source made the active and inactive calls. Rule as the data show it: active = GI50 up to about 1.1 µM and inactive = higher.

Assays:
Test in all cases: NCI tumour cell line growth inhibition, 48 h
A549 = system: A549
IGROV-1 = system: IGROV-1
HL-60 = system: HL-60
HOP-92 = system: HOP-92
M14 = system: M14
HCT-15 = system: HCT-15
MDA-N = system: MDA-N
HCT-116 = system: HCT-116
T47D = system: T47D
CAKI-1 = system: CAKI-1
NCI-H23 = system: NCI-H23
KM12 = system: KM12
Hs-578T = system: Hs-578T
NCI-H460 = system: NCI-H460
OVCAR-8 = system: OVCAR-8
K562 = system: K562
SK-OV-3 = system: SK-OV-3
HCC 2998 = system: HCC 2998

SMILES | GI50 (A549) | GI50 (IGROV-1) | GI50 (HL-60) | GI50 (HOP-92) | GI50 (M14) | GI50 (HCT-15) [µM] | GI50 (MDA-N) | GI50 (HCT-116) | GI50 (T47D) | GI50 (CAKI-1) | GI50 (NCI-H23) | GI50 (KM12) | GI50 (Hs-578T) | GI50 (NCI-H460) | GI50 (OVCAR-8) | GI50 (K562) | GI50 (SK-OV-3) | GI50 (HCC 2998)
CC1=NNC(=O)C1C1C=C(c2c[nH]c3ccccc23)OC1=O (stereo not given) | > 100 µM (inactive) | 37 µM (inactive) | > 100 µM (inactive) | > 100 µM (inactive) | > 100 µM (inactive) | > 100 | > 100 µM (inactive) | > 100 µM (inactive) | > 100 µM (inactive) | > 100 µM (inactive) | > 100 µM (inactive) | 21.7 µM (inactive) | > 100 µM (inactive) | > 100 µM (inactive) | > 100 µM (inactive) | 62.4 µM (inactive) | > 100 µM (inactive) | 
C=C(C)CN(CC#N)CC(=C)C | > 100 µM (inactive) | > 100 µM (inactive) | > 100 µM (inactive) |  | > 100 µM (inactive) | > 100 | > 100 µM (inactive) | > 100 µM (inactive) | > 100 µM (inactive) | > 100 µM (inactive) | > 100 µM (inactive) | > 100 µM (inactive) | 83.2 µM (inactive) |  | > 100 µM (inactive) | > 100 µM (inactive) | > 100 µM (inactive) | > 100 µM (inactive)
CC(C)NCCC(O)c1cc2ccccc2o1 (stereo not given) | > 100 µM (inactive) | > 100 µM (inactive) |  | > 100 µM (inactive) | > 100 µM (inactive) | > 100 | > 100 µM (inactive) | > 100 µM (inactive) | > 100 µM (inactive) | > 100 µM (inactive) | > 100 µM (inactive) | > 100 µM (inactive) | > 100 µM (inactive) | > 100 µM (inactive) | > 100 µM (inactive) | 1.06 µM (active) | > 100 µM (inactive) | 
CSc1ccc2c(c1)N(CCCN(C)C)c1ccccc1S2 | 15.4 µM (inactive) | 13.2 µM (inactive) | 12 µM (inactive) | 11.7 µM (inactive) | 5.19 µM (inactive) | 15 | 10.7 µM (inactive) | 12.7 µM (inactive) | 10.4 µM (inactive) | 8.67 µM (inactive) | 16.4 µM (inactive) | 11.8 µM (inactive) | 11 µM (inactive) | 10.8 µM (inactive) | 17.2 µM (inactive) | 4.28 µM (inactive) | 15.1 µM (inactive) | 
O=C(Nc1nc(C23CC4CC(CC(C4)C2)C3)cs1)c1c(O)c2ccccc2[nH]c1=O | > 100 µM (inactive) | > 100 µM (inactive) | > 100 µM (inactive) | > 100 µM (inactive) |  | > 100 | > 100 µM (inactive) | > 100 µM (inactive) |  | > 100 µM (inactive) | > 100 µM (inactive) | > 100 µM (inactive) | > 100 µM (inactive) | > 100 µM (inactive) | > 100 µM (inactive) | > 100 µM (inactive) |  | > 100 µM (inactive)
COc1c(O)cc2c3c(ccnc13)NC=C2 | > 100 µM (inactive) | > 100 µM (inactive) | 11.4 µM (inactive) | > 100 µM (inactive) | > 100 µM (inactive) | > 100 | > 100 µM (inactive) | 76.9 µM (inactive) |  | > 100 µM (inactive) | > 100 µM (inactive) | > 100 µM (inactive) | > 100 µM (inactive) | > 100 µM (inactive) | > 100 µM (inactive) | 96.6 µM (inactive) | 83.2 µM (inactive) | > 100 µM (inactive)
COc1c(N2CCCCC2)c2c(=O)c3ccccc3oc2c2c3ccccc3n(C)c12 | > 100 µM (inactive) |  | 57.3 µM (inactive) | > 100 µM (inactive) | > 100 µM (inactive) | > 100 | 38.1 µM (inactive) | 53.1 µM (inactive) |  | > 100 µM (inactive) | > 100 µM (inactive) | > 100 µM (inactive) | > 100 µM (inactive) | > 100 µM (inactive) | > 100 µM (inactive) | 58.2 µM (inactive) | > 100 µM (inactive) | > 100 µM (inactive)
COC(=O)C1=COc2c(n(C)c3ccccc23)-c2ccccc21 |  | 20.2 µM (inactive) | > 100 µM (inactive) |  | > 100 µM (inactive) | > 100 | > 100 µM (inactive) | > 100 µM (inactive) | > 100 µM (inactive) | > 100 µM (inactive) | > 100 µM (inactive) | > 100 µM (inactive) | > 100 µM (inactive) | > 100 µM (inactive) | > 100 µM (inactive) | > 100 µM (inactive) | > 100 µM (inactive) | 
CC(C)(C)/C(=N\Nc1nc2ccccc2[nH]1)c1ccccn1 | > 100 µM (inactive) | 80.7 µM (inactive) |  | 24.9 µM (inactive) | 61 µM (inactive) | 43.1 | > 100 µM (inactive) | 22.8 µM (inactive) | 21 µM (inactive) | 48.2 µM (inactive) | 82.8 µM (inactive) | 86.5 µM (inactive) | > 100 µM (inactive) | > 100 µM (inactive) | > 100 µM (inactive) | 99.8 µM (inactive) | > 100 µM (inactive) | 
C[C@]12C(=O)OC[C@H](c3ccccc3)N1C(=O)N(Cc1ccccc1)[C@@H]2CO | > 100 µM (inactive) | > 100 µM (inactive) | > 100 µM (inactive) | > 100 µM (inactive) | > 100 µM (inactive) | > 100 | > 100 µM (inactive) | > 100 µM (inactive) |  | > 100 µM (inactive) |  | > 100 µM (inactive) | > 100 µM (inactive) | > 100 µM (inactive) | > 100 µM (inactive) | > 100 µM (inactive) | > 100 µM (inactive) | > 100 µM (inactive)
Cc1cc(C)c2c(O)cc(-c3cccc(Cl)c3)nc2n1 | 0.227 µM (active) | 0.2 µM (active) | 0.0316 µM (active) | 21.9 µM (inactive) | 0.134 µM (active) | 0.101 | 0.0138 µM (active) | 0.0791 µM (active) |  |  | 0.76 µM (active) | 0.0933 µM (active) | 0.252 µM (active) | 0.0968 µM (active) | 0.4 µM (active) | < 0.0199 µM (active) | 0.293 µM (active) | 0.403 µM (active)
N#C/C(=C\c1cn(Cc2ccccc2)c2ccccc12)c1nn(-c2ccccc2)c(N)c1C#N | 11.2 µM (inactive) | 12.8 µM (inactive) | 41.5 µM (inactive) | 8.41 µM (inactive) | 20.4 µM (inactive) | 31.1 | 23.2 µM (inactive) | 16.4 µM (inactive) | 1.33 µM (inactive) | 17.4 µM (inactive) | 14.2 µM (inactive) | 26.1 µM (inactive) | 25.6 µM (inactive) | 12 µM (inactive) | 10.1 µM (inactive) | 24.3 µM (inactive) | 15.2 µM (inactive) | 
Cc1nnc2n1-c1ccccc1-c1[nH]c3ccccc3c1C2 | 91 µM (inactive) | 70 µM (inactive) | 21.2 µM (inactive) | 93.8 µM (inactive) | 43.1 µM (inactive) |  | 61.1 µM (inactive) | 54.8 µM (inactive) | > 100 µM (inactive) | 51.1 µM (inactive) | 63.7 µM (inactive) | 94.4 µM (inactive) | > 100 µM (inactive) | 30.7 µM (inactive) | 38.1 µM (inactive) | 24.2 µM (inactive) | > 100 µM (inactive) | 
